What was measured:
Mcl-1 [1] = biological target: T1, Mcl-1 (Homo sapiens, UniProt Q07820); experiment: fluorescence polarization competition assay; assay type: binding
Mcl-1 [2] = biological target: T1, Mcl-1; experiment: bio-layer interferometry; assay type: binding; conditions: label-free BLI
Mcl-1 [3] = biological target: T1, Mcl-1; experiment: surface plasmon resonance; assay type: binding
Mcl-1 [4] = biological target: T1, Mcl-1; experiment: HSQC chemical shift mapping; assay type: binding
in vitro cellular assay = assay type: cell-based

T1 sequence (Q07820 whole entry): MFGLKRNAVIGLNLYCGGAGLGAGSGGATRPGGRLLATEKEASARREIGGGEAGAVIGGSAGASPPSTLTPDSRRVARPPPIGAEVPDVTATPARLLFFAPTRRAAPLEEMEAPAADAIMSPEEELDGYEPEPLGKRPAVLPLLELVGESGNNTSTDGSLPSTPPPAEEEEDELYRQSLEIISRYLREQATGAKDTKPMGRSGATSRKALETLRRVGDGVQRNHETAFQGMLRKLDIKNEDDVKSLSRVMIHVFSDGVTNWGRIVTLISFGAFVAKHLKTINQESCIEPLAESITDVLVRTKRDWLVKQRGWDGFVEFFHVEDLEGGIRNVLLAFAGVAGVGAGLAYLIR

Row | SMILES | direct binding to Mcl-1 (Mcl-1 [2]) | potency relative to M0 (Mcl-1 [1]) | further results
1 | Cc1c(/C=N/N2C=Nc3c([nH]c4ccccc34)C2)c(=O)oc2c3c4c(cc12)CCCN4CCC3 [Compound M1] | confirmed the activity | – | Ki (Mcl-1 [1]): 1200 nM
2 | COc1cc(C(=O)/C=C/c2ccc(O)cc2)c(O)c(OC)c1OC [Compound D7] | – | less potent than M0 | –
3 | COc1cc(O)c(C(=O)/C=C/c2ccc(O)c(OC)c2)c(OC)c1 [Compound M0, 2’,4-dihydroxy-3,4’,6’-trimethoxychalcone] | confirmed the activity | – | SPR response (Mcl-1 [3]): did not exhibit super-stoichiometric behavior; HSQC spectrum (Mcl-1 [4]): small number of distinct chemical shift differences
4 | COc1ccc(/C=C/C(=O)c2cc(OC)c(OC)c(OC)c2O)cc1 [Compound D12] | – | less potent than M0 | –
5 | c1cc2c(cc1[C@H]1OC[C@H]3[C@H]1CO[C@H]3c1ccc3c(c1)OCO3)OCO2 [Compound M7] | confirmed the activity | – | –
6 | COc1ccc(C(=O)/C=C/c2cc(F)c(O)c(Cl)c2)c(OC)c1OC [Compound D2] | – | – | biological effect in cells (in vitro cellular assay): does not exert the desired biological effect; potency of Mcl-1 inhibition relative to M0 (Mcl-1 [1]): about 7 fold
7 | COc1ccc(C(=O)/C=C/c2ccc(O)c(F)c2)c(OC)c1OC [Compound D5] | – | very similar inhibition constant as M0 | activity relative to D1 (Mcl-1 [1]): reduced activity
8 | COc1cc(C(=O)/C=C/c2ccc([N+](=O)[O-])cc2)c(O)c(OC)c1OC [Compound D14] | – | less potent than M0 | –
9 | COc1ccc(C(=O)/C=C/c2cc(Cl)c(O)c(OC)c2)cc1 [Compound D4] | – | potency exceeding that of M0 | –
10 | COc1cc(C(=O)/C=C/c2ccc(C(F)(F)F)cc2)c(O)c(OC)c1OC [Compound D13] | – | less potent than M0 | –
11 | COc1ccc(C(=O)/C=C/c2cc(F)c(O)c(Cl)c2)cc1 [Compound D3] | – | potency exceeding that of M0 | activity relative to D1 (Mcl-1 [1]): reduced activity
12 | C[C@@]12CC[C@@H]3[C@H](CCC4=CC(=O)CC[C@H]43)[C@H]1CC[C@H]2OC1(O)C(=O)c2ccccc2C1=O [Compound M5] | confirmed the activity | – | –
13 | COc1cc(/C=C/C(=O)c2ccc(OC)c(OC)c2OC)cc(Cl)c1O [Compound D1] | – | – | potency of Mcl-1 inhibition relative to M0 (Mcl-1 [1]): about 7 fold
